Measured values as given in ChEMBL document CHEMBL1649363, “Nitropyrrolins A-E, cytotoxic farnesyl-α-nitropyrroles from a marine-derived bacterium within the actinomycete family Streptomycetaceae” (J Nat Prod, 2010).
≈ marks a conversion by molar mass, not a printed value.

Legend:
[1] = tested on: HCT-116; experiment: Cytotoxicity against human HCT116 cells; type: functional, cell-based
[2] = tested on: Staphylococcus aureus; experiment: Antibacterial activity against methicillin-resistant Staphylococcus aureus; type: functional
[3] = Homo sapiens, HCT-116, read-out: IC50

Row | SMILES | IC50 [1, 3] [µM] | MIC [2] [µg/mL] | IC50 ([1]; hct-116)
1 | CC(C)=CCC/C(C)=C\CC/C(C)=C\Cc1ccc[nH]1 | 24.4 | > 20 | –
2 | CC(C)=CCC/C(C)=C\CC/C(C)=C\Cc1cc[nH]c1 | 13.7 | 2.8 (≈ 10.3 µM) | –
3 | CC(C)=CCC/C(C)=C/CC[C@@]1(C)O[C@@H]1Cc1c[nH]c([N+](=O)[O-])c1 [NITROPYRROLIN B] | 31 | > 20 | –
4 | CC(C)=CCC/C(C)=C/C/C=C(\C)[C@H](O)Cc1c[nH]c([N+](=O)[O-])c1 [NITROPYRROLIN D] | 5.7 | > 20 | –
5 | O=[N+]([O-])c1cc[nH]c1 | – | > 20 | Not Active
6 | CC(C)=CCC/C(C)=C\CC/C(C)=C\Cc1c[nH]c([N+](=O)[O-])c1 | 9.2 | > 20 | –
7 | O=[N+]([O-])c1ccc[nH]1 | – | > 20 | Not Active
8 | CC(C)=CCC/C(C)=C/CC[C@](C)(O)[C@H](O)Cc1c[nH]c([N+](=O)[O-])c1 [NITROPYRROLIN A] | 31.1 | > 20 | –
9 | C/C(=C\CC[C@@](C)(Cl)[C@H](O)Cc1c[nH]c([N+](=O)[O-])c1)CC[C@@H](O)C(C)(C)O [NITROPYRROLIN E] | – | > 20 | Not Active
10 | CC(C)=CCC/C(C)=C/CC[C@@](C)(Cl)[C@H](O)Cc1c[nH]c([N+](=O)[O-])c1 [NITROPYRROLIN C] | – | > 20 | Not Active
